{
  "source": "patent US7829568B2",
  "about": "“Substituted 5,6,7,8-tetrahydroimidazo[1,2-a]pyridin-2-ylamine compounds and their use for producing drugs” (Gruenenthal GmbH, priority 2005, dated 2010)",
  "data": [
    {"test_system": "batrachotoxin (BTX) binding site of the sodium channel", "assay": "Affinity to the batrachotoxin (BTX) binding site of the sodium channel", "set-up": "species or system rat", "details": "[3H]-batrachotoxinin A20 α-benzoate 10 nM; synaptosomes from rat cerebral cortex; test concentration not given", "units": {"BTX inhibition (rat) (% inhibition)": "%"}, "values": [
      {"smiles": "CCCCN(C(=O)c1cccc(Cl)c1)c1nc2n(c1C(=O)Nc1ccc(C(C)(C)C)cc1)CCCC2", "note": "[Example 152, 2-[butyl-(3-chloro-benzoyl)-amino]-5,6,7,8-tetrahydro-imidazo[1,2-a]pyridine-3-carboxylic acid (4-tert-butyl-phenyl)-amide]", "BTX inhibition (rat) (% inhibition)": 92},
      {"smiles": "CN(C(=O)c1ccccc1)c1nc2n(c1C(=O)NC1CCN(Cc3c(Cl)cccc3Cl)C1)CCCC2", "note": "(centres unmarked) [Example 101, 2-(benzoyl-methyl-amino)-5,6,7,8-tetrahydro-imidazo[1,2-a]pyridine-3-carboxylic acid [1-(2,6-dichloro-benzyl)-pyrrolidin-3-yl]-amide]", "BTX inhibition (rat) (% inhibition)": 54},
      {"smiles": "CCCCN(C(=O)c1cccc(Cl)c1)c1nc2n(c1C(=O)NCc1ccc(F)cc1F)CCCC2", "note": "[Example 47, 2-[butyl-(3-chloro-benzoyl)-amino]-5,6,7,8-tetrahydro-imidazo[1,2-a]pyridine-3-carboxylic acid 2,4-difluoro-benzylamide]", "BTX inhibition (rat) (% inhibition)": 44},
      {"smiles": "CCCCN(C(=O)c1ccc(F)c(F)c1)c1nc2n(c1C(=O)NCCCc1ccccc1)CCCC2", "note": "[Example 28, 2-[butyl-(3,4-difluoro-benzoyl)-amino]-5,6,7,8-tetrahydro-imidazo[1,2-a]pyridine-3-carboxylic acid (3-phenyl-propyl)-amide]", "BTX inhibition (rat) (% inhibition)": 42},
      {"smiles": "CCCCN(C(=O)c1cccc(Cl)c1)c1nc2n(c1C(=O)NC(c1ccccc1)c1ccccc1)CCCC2", "note": "[Example 147, 2-[butyl-(3-chloro-benzoyl)-amino]-5,6,7,8-tetrahydro-imidazo[1,2-a]pyridine-3-carboxylic acid benzhydryl-amide]", "BTX inhibition (rat) (% inhibition)": 56},
      {"smiles": "CCCCN(C(=O)c1ccc(F)c(F)c1)c1nc2n(c1C(=O)N1CCN(Cc3ccc4c(c3)OCO4)CC1)CCCC2", "note": "[Example 137, N-[3-(4-benzo[1,3]dioxol-5-ylmethyl-piperazine-1-carbonyl)-5,6,7,8-tetrahydro-imidazo[1,2-a]pyridin-2-yl]-N-butyl-3,4-difluor-benzamide]", "BTX inhibition (rat) (% inhibition)": 72},
      {"smiles": "CCCCN(C(=O)c1ccc(F)c(F)c1)c1nc2n(c1C(=O)N1CCN(Cc3ccc(Cl)cc3)CC1)CCCC2", "note": "[Example 150, N-butyl-N-{3-[4-(4-chlorobenzyl)-piperazine-1-carbonyl]-5,6,7,8-tetrahydro-imidazo[1,2-a]pyridin-2-yl}-3,4-difluoro-benzamide]", "BTX inhibition (rat) (% inhibition)": 69},
      {"smiles": "COc1cc(Br)c(CN2CCC(NC(=O)c3c(N(C)C(=O)c4cccc(Cl)c4)nc4n3CCCC4)C2)cc1OC", "note": "(centres unmarked) [Example 84, 2-[(3-chloro-benzoyl)-methyl-amino]-5,6,7,8-tetrahydro-imidazo[1,2-a]pyridin-3-carboxylic acid [1-(2-bromo-4,5-dimethoxy-benzyl)-pyrrolidin-3-yl]-amide]", "BTX inhibition (rat) (% inhibition)": 87},
      {"smiles": "CN(C(=O)c1cccc(Cl)c1)c1nc2n(c1C(=O)NCCc1cccc(C(F)(F)F)c1)CCCC2", "note": "[Example 71, 2-[(3-chloro-benzoyl)-methyl-amino]-5,6,7,8-tetrahydro-imidazo[1,2-a]pyridine-3-carboxylic acid [2-(3-trifluoromethyl-phenyl)-ethyl]-amide]", "BTX inhibition (rat) (% inhibition)": 36},
      {"smiles": "CN(C(=O)c1cccc2ccccc12)c1nc2n(c1C(=O)N(C)C1CCN(Cc3ccc(-c4ccccc4)cc3)C1)CCCC2", "note": "(centres unmarked) [Example 76, 2-[methyl-(naphthalene-1-carbonyl)-amino]-5,6,7,8-tetrahydro-imidazo[1,2-a]pyridine-3-carboxylic acid (1-biphenyl-4-ylmethyl-pyrrolidin-3-yl)-methyl-amide]", "BTX inhibition (rat) (% inhibition)": 95},
      {"smiles": "CN(C(=O)c1cccc2ccccc12)c1nc2n(c1C(=O)NCc1cc(C(F)(F)F)cc(C(F)(F)F)c1)CCCC2", "note": "[Example 15, 2-[Methyl-(naphthalene-1-carbonyl)-amino]-5,6,7,8-tetrahydro-imidazo[1,2-a]pyridine-3-carboxylic acid 3,5-bis-trifluoromethyl-benzylamide]", "BTX inhibition (rat) (% inhibition)": 68},
      {"smiles": "CCCCN(C(=O)c1cccc(Cl)c1)c1nc2n(c1C(=O)N1CCN(c3ccccc3F)CC1)CCCC2", "note": "[Example 48, N-butyl-3-chloro-N-{3-[4-(2-fluoro-phenyl)-piperazine-1-carbonyl]-5,6,7,8-tetrahydro-imidazo[1,2-a]pyridin-2-yl}-benzamide]", "BTX inhibition (rat) (% inhibition)": 89},
      {"smiles": "CCCCN(C(=O)c1cccc(Cl)c1)c1nc2n(c1C(=O)NCCOc1ccccc1)CCCC2", "note": "[Example 107, 2-[butyl-(3-chloro-benzoyl)-amino]-5,6,7,8-tetrahydro-imidazo[1,2-a]pyridine-3-carboxylic acid (2-phenoxy-ethyl)-amide]", "BTX inhibition (rat) (% inhibition)": 39},
      {"smiles": "CCCCN(C(=O)c1cccc(Cl)c1)c1nc2n(c1C(=O)NCCc1c[nH]c3c(C)cccc13)CCCC2", "note": "[Example 69, 2-[butyl-(3-chloro-benzoyl)-amino]-5,6,7,8-tetrahydro-imidazo[1,2-a]pyridine-3-carboxylic acid [2-(7-methyl-1H-indol-3-yl)-ethyl]-amide]", "BTX inhibition (rat) (% inhibition)": 48},
      {"smiles": "CN(C(=O)c1cccc2ccccc12)c1nc2n(c1C(=O)N1CCN(Cc3cc4ccccc4o3)CC1)CCCC2", "note": "[Example 108, naphthalene-1-carboxylic acid [3-(4-benzofuran-2-ylmethyl-piperazine-1-carbonyl)-5,6,7,8-tetrahydro-imidazo[1,2-a]pyridin-2-yl]-methyl-amide]", "BTX inhibition (rat) (% inhibition)": 41},
      {"smiles": "CCCCN(C(=O)c1cccc(Cl)c1)c1nc2n(c1C(=O)Nc1ccc(NC(=O)OC(C)(C)C)cc1)CCCC2", "note": "[Example 189, [4-({2-[butyl-(3-chloro-benzoyl)-amino]-5,6,7,8-tetrahydro-imidazo[1,2-a]pyridine-3-carbonyl}-amino)-phenyl]-carbamic acid tert-butyl ester]", "BTX inhibition (rat) (% inhibition)": 93},
      {"smiles": "CC(NC(=O)c1c(N(C)C(=O)c2cccc(Cl)c2)nc2n1CCCC2)C12CC3CC(CC(C3)C1)C2", "note": "(centres unmarked) [Example 165, 2-[(3-chloro-benzoyl)-methyl-amino]-5,6,7,8-tetrahydro-imidazo[1,2-a]pyridine-3-carboxylic acid (1-adamantan-1-yl-ethyl)-amide]", "BTX inhibition (rat) (% inhibition)": 39},
      {"smiles": "CN(C(=O)c1cccc(Cl)c1)c1nc2n(c1C(=O)NC1CCCCC1OCc1ccccc1)CCCC2", "note": "(centres unmarked) [Example 67, 2-[(3-chloro-benzoyl)-methyl-amino]-5,6,7,8-tetrahydro-imidazo[1,2-a]pyridine-3-carboxylic acid (2-benzyloxy-cyclohexyl)-amide]", "BTX inhibition (rat) (% inhibition)": 51},
      {"smiles": "CCCCN(C(=O)c1ccc(F)c(F)c1)c1nc2n(c1C(=O)N(C)C1CCN(Cc3cc4ccccc4o3)C1)CCCC2", "note": "(centres unmarked) [Example 34, 2-[butyl-(3,4-difluoro-benzoyl)-amino]-5,6,7,8-tetrahydro-imidazo[1,2-a]pyridine-3-carboxylic acid (1-benzofuran-2-ylmethyl-pyrrolidin-3-yl)-methyl-amide]", "BTX inhibition (rat) (% inhibition)": 83},
      {"smiles": "CCCCN(C(=O)c1cccc(Cl)c1)c1nc2n(c1C(=O)NC1CCCCC1OCc1ccccc1)CCCC2", "note": "(centres unmarked) [Example 124, 2-[butyl-(3-chloro-benzoyl)-amino]-5,6,7,8-tetrahydro-imidazo[1,2-a]pyridine-3-carboxylic acid (2-benzyloxy-cyclohexyl)-amide]", "BTX inhibition (rat) (% inhibition)": 48}
    ]}
  ]
}
